Test results published in patent publication US20230130823A1, “PROCESS FOR THE PRODUCTION OF ANTITUMOUR PHARMACEUTICAL COMPOSITIONS USING PUSH-PULL BUTADIENES, COMPOUNDS AND USES THEREOF” (ANHANGUERA EDUCACIONAL PARTICIPAÇÕES S/A, priority 2019, published 2023).
Converted amounts (≈) assume the structure as drawn. “And” between values parts separate entries of the source, which are not always exact repeats. Identical values can stand only once.

What was measured:
[1] = test system: MCF-7 (human mammary adenocarcinoma); experiment: Cytotoxicity, MCF-7 cells; type: cell-based; conditions: MCF7, read-out: CI50% tumor cells
[2] = test system: SCC9 (squamous-cell carcinoma of the oral cavity); experiment: Cytotoxicity, SCC9 cells; type: cell-based; conditions: Homo sapiens, SCC-9, read-out: CI50% tumor cells
[3] = test system: 4T1 (murine mammary carcinoma); experiment: Cytotoxicity, 4T1 cells; type: cell-based; conditions: Mus musculus, read-out: CI50% tumor cells
PANC1 = experiment: In vitro cytotoxicity, PANC1 pancreas line; type: cell-based; conditions: Homo sapiens, PANC-1; PANC1, pancreas; read-out: IC50
Colo205 [4] = experiment: Analysis of the cell cycle phases, Colo205; type: cell-based; conditions: for Cell cycle phase (%) G2M: G2/M phase
Description: The compounds of this family were also studied for the distribution of the population of tumor cells in the different phases of the cell cycle: quiescent cells, non-proliferating (G1/G0 phase), which present DNA/RNA synthesis capacity (S phase) and cell division cells (G2/M phase).

CRO2B = experiment: In vitro cytotoxicity, CRO2B carcinoid line; type: cell-based; conditions: Homo sapiens, carcinoid, read-out: IC50
tumor cells line Colo205 = experiment: Colo205 cell count; type: cell-based; conditions: compared to cells treated with culture medium only
Experimental: The compounds were tested for their ability to reduce the number of cells in the tumor, compared to cells treated with culture medium only. In Table 4, the results obtained are shown.

Colo205 [5] = experiment: Determination of apoptotic cells (subG1), Colo205, flow cytometry; type: cell-based; conditions: sub-diploid DNA content
Description: Determination of Apoptotic Cells (subG1)-Colo205
In this experiment, the proportion of apoptotic cells was identified, that is, cells showing DNA content below normal (sub-diploid) in flow cytometry testing.

BxPC3 = experiment: In vitro cytotoxicity, BxPC3 pancreas line; type: cell-based; conditions: Homo sapiens, BXPC-3; BxPC3, pancreas; read-out: IC50
MIAP2 = experiment: In vitro cytotoxicity, MIAP2 pancreas line; type: cell-based; conditions: Homo sapiens; MIAP2, pancreas; read-out: IC50
[6] = test system: lines of human carcinoma tested; experiment: In vitro cytotoxicity against the panel of human carcinoma lines; conditions: tumor cell lines of human carcinoma tested
HT-29 = experiment: In vitro cytotoxicity, HT-29 colon line; type: cell-based; conditions: Homo sapiens; HT-29, colon; read-out: IC50
SW620 = experiment: In vitro cytotoxicity, SW620 colon line; type: cell-based; conditions: Homo sapiens, SW-620; SW620, colon; read-out: IC50
Colo205 [7] = experiment: In vitro cytotoxicity, Colo205 colon line; type: cell-based; conditions: Homo sapiens, COLO 205; Colo205, colon; read-out: IC50
CaCo2 = experiment: In vitro cytotoxicity, CaCo2 colon line; type: cell-based; conditions: Homo sapiens, Caco-2; CaCo2, colon; read-out: IC50
[8] = test system: murine melanoma cells B16F10; experiment: MTT cytotoxicity in B16F10 melanoma cells; type: cell-based; conditions: for IC50: Mus musculus, B16-F10, B16F10 melanoma, 24 hours of culture, MTT, read-out: CI50% (the source's name)
Experimental: The tumor line of murine melanoma B16F10 was donated by the Ludwig-Switzerland Institute. Adherent cell suspensions of B16F10 cells were obtained for all experimental procedures by treating culture flasks with trypsin 0.2% for 5 minutes and inactivated with 10% fetal bovine serum. The detached cells were centrifuged twice, resuspended in supplemented RPMI-1640 medium. The count was performed in Malassez chamber, and the cell concentration was adjusted in 5×10^5 cells/ml, in RPMI-1640 culture medium supplemented with 10% fetal bovine serum and 7 ug polymyxin-B (Sigma Chemical Company, St Louis Mo.-USA).
Cell viability was determined by the Trypan Blue exclusion test, being greater than 95% of viable cells. The cells were grown in plates with 96 well plate flat bottoms (Corning), at a concentration of 2×10^5 cells, maintained for 24 hours in a CO2 oven at 37° C. After this period, the plates were centrifuged for 5 minutes, at 2000 rpm at 4° C., the supernatant discarded and added different concentrations of the compounds, diluted in RPMI-1640 culture medium, supplemented and increased by 7 μg of Polymyxin-B (Sigma Chemical Company). After treatment with the various diluted compounds in complete culture medium, the cells were incubated with 0.5 mg/mL of MTT reactive.
The cell viability test was performed to verify the effect of the various compounds on the various concentrations previously established: on the lines of tumor cells B16F10 and normal human fibroblasts. The MTT method consists of a cell viability test that measures the activity of mitochondrial dehydrogenase. MTT is a colorimetric method based on the capacity of living cells to reduce salt 3-(4,5-di-methylazole-2-IL)-2,5-diphenyl tetrazolium bromide in the formazan product (Mosmann, 1983). After the cells plating (concentration of 1×10^4 per well of the culture plate) in RPMI-1640 medium and 10% SFB medium, they were maintained at 37° C. for periods of 24, 48, 72 and 96 hours. Four hours before the set time was completed, MTT 20 μL (Sigma) was added (final concentration of […]). The plates were kept in the oven for the remaining four hours. After the stipulated time, 180 μL of the supernatant were removed from each well and then added 150 μL of dimethyl sulfoxide (Sigma) homogenizing well for the complete dissolution of the salt crystals formed by the mitochondrial metabolism resulting in a staining.
The 96-well plate was read by the spectrophotometer (Spectra MAX-190) using the wavelength of 570 nm. The results were analyzed by absorbance of each well. The percentage of viability was obtained using the following formula: [(Absorbance of treated cells/Absorbance of untreated cells)×100]. The experiments were carried out in quadruplicate.
The samples of the compounds obtained by synthesis chemistry were diluted in DMSO solution at the final concentration of 10%.

[9] = test system: HUVEC (Normal human endothelial cell); experiment: Cytotoxicity, HUVEC normal cells

In the case of `COc1cc(/C=C/C(=O)/C=C/C=C(Cl)/C=C/c2ccc(OC)c(OC)c2)ccc1O` [Compound 29, (1E,4E,6Z,8E)-7-chloro-1-(4-hydroxy-3-methoxyphenyl)-9-(3,4-dimethoxyphenyl)nona-1,4,6,8-tetraen-3-ona], the IC50 [1] is reported as 0.701 µM, the IC50 [2] is reported as 9.22 µM and the IC50 [3] is reported as 8.27 µM.

With `CC(=O)c1ccc(OCC=C(C)C)cc1` [Compound 1, 4-(3-methylbut-2-enyl-oxyi)acetophenone] the IC50 (PANC1) was 759 µM, the “Cell cycle phase (%) G1/G0” value (Colo205 [4]) was 48.0 ± 2.54% and the “Cell cycle phase (%) G2M” value (Colo205 [4]) was 5.0 ± 2.26%. The “Cell cycle phase (%) S” value (Colo205 [4]) was 47.0 ± 0.28%, the IC50 (CRO2B) was 666 µM and the “Relative number of cells (% ± standard deviation)” value (tumor cells line Colo205) was 70.2 ± 0.339%. The “Percentage of cells (apoptotic, subG1)” value (Colo205 [5]) was 5.2 ± 0.566%, the IC50 (BxPC3) was 725 µM and the IC50 (MIAP2) was 823 µM. For the same compound, the “cytotoxic activity (in words)” value [6] was “showed no cytotoxic activity”, the IC50 (HT-29) was 455 µM and the IC50 (SW620) was 980 µM. The IC50 (Colo205 [7]) was 1030 µM and the IC50 (CaCo2) was 759 µM.

In the case of `N#CC(C#N)=C/C=C(\Cl)c1ccc(OC(=O)c2ccccc2)cc1` [Compound 14, 4-(1-chloro-4,4-dicyano-buta-1,3-dienyl)phenyl Benzoate], the IC50 [8] is reported as 168 µg/mL (≈ 503 µM).

`O=CC=C(Cl)c1ccc(OC(=O)c2ccccc2)cc1OC(=O)c1ccccc1` [Compound 27, 3-Chloro-3-(2,4-benzoyloxy-phenyl)propenal] was tested, and the “Cell cycle phase (%) G1/G0” value (Colo205 [4]) was 54.2 ± 0.35%, the “Cell cycle phase (%) G2M” value (Colo205 [4]) was 12.4 ± 0.63% and the “Cell cycle phase (%) S” value (Colo205 [4]) was 33.4 ± 0.21%. The “Relative number of cells (% ± standard deviation)” value (tumor cells line Colo205) was 32.3 ± 1.017% and the “Percentage of cells (apoptotic, subG1)” value (Colo205 [5]) was 18.0 ± 0.354%.

In the case of `O=C(Oc1ccc(/C(Cl)=C/C=C/[N+](=O)[O-])cc1)c1ccccc1` [Compound 16, 4-(1-chloro-4-nitro-buta-1,3-dienyl)phenyl Benzoate], the IC50 [8] is reported as 34.9 µg/mL and 106 µM.

In the case of `CC(C)=CCOc1ccc(C(C)=C(C#N)C#N)cc1` [Compound 2], the IC50 (PANC1) is reported as 177 µM, the “Cell cycle phase (%) G1/G0” value (Colo205 [4]) is reported as 90.0 ± 0.91% and the “Cell cycle phase (%) G2M” value (Colo205 [4]) is reported as 0.8 ± 0.42%. For the same compound, the “Cell cycle phase (%) S” value (Colo205 [4]) was 9.15 ± 0.49%, the IC50 (CRO2B) was 149 µM and the “Relative number of cells (% ± standard deviation)” value (tumor cells line Colo205) was 12.7 ± 0.339%. The “Percentage of cells (apoptotic, subG1)” value (Colo205 [5]) was 35.7 ± 1.485%, the IC50 (BxPC3) was 160 µM and the IC50 (MIAP2) was 155 µM. The “cytotoxic activity (in words)” value [6] was “exhibited a better cytotoxic activity”, the IC50 (HT-29) was 92 µM and the IC50 (SW620) was 134 µM. The IC50 (Colo205 [7]) was 149 µM and the IC50 (CaCo2) was 163 µM.

`COc1ccc(C(=O)/C(C#N)=C/C=C(\Cl)c2ccc(I)cc2)cc1OC` [Compound 21, 5-chloro-2-(3,4-dimethoxy-benzoyl)-5-(4-iodine-phenyl)-penta-2,4-dienonitrile] gave an IC50 [1] of 0.293 µM, an IC50 [2] of 0.858 µM and a CI50% Normal cells [9] of 16.4 µM. For the same compound, the IC50 [3] was 6.44 µM.

For `CC(=O)C(=C/C=C(\Cl)c1ccc(I)cc1)C(C)=O` [Compound 18, 3-acetyl-6-chloro-6-(4-iodophenyl)-hexa-3,5-diene-2-ona], the IC50 [1] was 0.666 µM, the IC50 [2] was 10.9 µM and the times more active ([8]; compared with the acetylacetone-derived benzoate isomers) was about 7 times. It also gave an IC50 [3] of 3.71 µM.

For `CC(=O)c1ccccc1C(=O)Oc1ccccc1` [Compound 4, 2-Acetyl Benzoate of Phenyl], the “cytotoxic activity (in words)” value [6] was “inactive”.

`O=C(Oc1ccccc1/C(Cl)=C/C=C/[N+](=O)[O-])c1ccccc1` [Compound 7, 2-(1-chloro-4-nitro-buta-1,3-dienyl)phenyl Benzoate] was tested, and the “cytotoxic activity (in words)” value [6] was “little antitumor activity”, the “activity relative to compound 6” value ([8]; B16F10, compared with compound 6) was “almost ten times more active” and the IC50 [8] was 3.27 µg/mL and 9.93 µM.

`CCSC(=CC(=C(C#N)C#N)c1ccc(OCC=C(C)C)cc1)SCC` [Compound 3] was tested, and the IC50 (PANC1) was 50 µM, the IC50 (CRO2B) was 6.51 µM and the IC50 (BxPC3) was 24.2 µM. The IC50 (MIAP2) was 3.9 µM, the “cytotoxic activity (in words)” value [6] was “potent cytotoxic activity” and the IC50 (HT-29) was 3.9 µM. It also gave an IC50 (SW620) of 11.7 µM, an IC50 (Colo205 [7]) of 14.3 µM and an IC50 (CaCo2) of 8.07 µM.
